Measurements: US11180486B2, “Indolylkojyl methane analogues, process of preparation thereof and use as inhibitor of cancer cells invasion and metastasis” (Council of Scientific & Industrial Research, priority 2017, dated 2021)

How the values were obtained:
MCF7 cells = assay: Cell viability (MTT) assay; type: cell-based; details: Homo sapiens, MCF7, 48 h, 44 h + 4 h, mean ± SD of three experiments, read-out: IC50 values MCF7
Procedure: (§1) Cell Culture and Reagents. The cell lines used in this study were procured from American Type Culture Collection (ATCC), Manassas, USA. MCF7, T47D and fR2 cells were cultured in RPMI-1640 medium, whereas the MDA-MB-231 cells were grown in Leibovitz's (L-15) medium supplemented with 10% fetal bovine serum (Gibco) and 1% penicillin/streptomycin (Sigma) in a humidified CO2 incubator (New Brunswick Galaxy 170 R) with 5% CO2. Reagents such as phenylmethylsulfonyl fluoride (PMSF), dithiothreitol (DTT), DMSO, crystal violet, and Bradford's reagent were purchased from Sigma-Aldrich. Protease inhibitor cocktail was procured from Roche. The antibodies for human GRP78, Par-4, MMP-2, MMP-9, NF-kB, E-cadherin and TIMP-1 were procured from Santa-Cruz Biotechnology. The β-actin antibody and the secondary antibodies such as anti-rabbit IgG and anti-mouse IgG were procured from Sigma-Aldrich.
(§2) Cell Viability Assay. The cell viability was determined by standard MTT assay method. Briefly, MDA-MB-231, MCF7, T47D and fR2 cells were seeded in 96 well tissue culture plates (Nunc) at a density of 3×10^3 cells per well and treated with varying concentrations of the test compounds in triplicates. DMSO was taken as a vehicle and the final concentration of the DMSO was maintained at 0.2% in the culture medium. Doxorubicin was employed as a positive control. After 44 h of incubation, MTT dye solution was added into the medium and cells were incubated for another 4 h at 37° C. in 5% CO2. The amount of coloured formazan derivatives formed was measured by taking optical density (OD) using a microplate reader (TECAN, Infinite M200 Pro) at 570 nm and the percentage cell viability was calculated. The IC50 values were calculated using GraphPad Prism software (Version 5.0). Table 2. Cytotoxicity (IC50) of all synthesized compounds of invention against panel of human breast cancer cell lines (MDA-MB-231, MCF7, T47D) and normal breast epithelial (fR2) cells.

MDA-MB-231 cells = assay: Cell viability (MTT) assay; type: cell-based; details: Homo sapiens, MDA-MB-231, 48 h, 44 h + 4 h, mean ± SD of three experiments, read-out: IC50 values MDA-MB-231
Procedure: as §1, §2

T47D cells = assay: Cell viability (MTT) assay; type: cell-based; details: Homo sapiens, 48 h, 44 h + 4 h, mean ± SD of three experiments
Procedure: as §1, §2

[1] = system: mouse mammary carcinoma (4T1) cells; type: in vivo; details: 100 mg/kg b.w. i.p., alternate days for two weeks
Procedure: In Vivo Anti-Tumor and Anti-Metastatic Efficacy Studies. To evaluate the antitumor and antimetastatic effect of 5 in vivo, healthy female Balb/c mice (b.w. 18-23 g) were taken. The experimental protocols were approved by the Institutional Animal Ethics Committee, CPCSEA, of Indian Institute of Integrative Medicine, Jammu. The animals were maintained at 22° C. with a 12 h light-dark cycle and free access to feed and water inside the institutional animal house. Proper care was taken to maintain them in a healthy condition and to avoid any risk of possible pathogenic contaminations. For subcutaneous implantation, the mice were randomized into two groups of 5 mice per group and 1.5 million mouse mammary carcinoma (4T1) cells in serum free RPMI media were injected subcutaneously into the mammary fat pad of each mouse. Either 1 week after the tumor cell implantation or when the tumor volume reached ˜150 mm^3, mice were injected intraperitoneally with either normal saline (NS) or parent compound 1 (100 mg/kg, b.w.) or 5 (30 mg/kg, b.w.) in each alternate days for two weeks. Tumor size was recorded on each alternate days post-cell injection and body weights were recorded once per week. Mice were sacrificed on the 15th day of treatment initiation and tumors were incised for its measurement. Metastatic lung nodules were counted using a dissecting microscope. Lungs were then minced into fine pieces, suspended in medium containing collagenase and kept in 37° C. incubator with vigorous shaking for 2 h. The suspension was then filtered with the help of 70 μm cell strainer (BD, USA) to get the single cell suspension. Then, the suspension was serially diluted for 3-4 times in selection medium containing 6-thioguanine, for the selection of 4T1 cells. Each dilution containing the lung cell suspension was then plated into individual petridishes and incubated at 37° C. and 5% CO2 for the growing of 4T1 cell colonies. After 15 days of incubation, cells were washed with PBS, fixed with methanol and stained with 0.2% crystal violet solution for 1 h. Images of the 4T1 colonies were observed, counted and photographed under an inverted microscope at 20× magnification.

Compound | IC50 (MCF7 cells) | IC50 (MDA-MB-231 cells) | IC50 (T47D cells) | melting point | decrease in metastatic lung nodules [1] | inhibition in tumor growth ([1]; vs normal saline)
CCCC(c1oc(CO)cc(=O)c1O)c1c[nH]c2ccccc12 (stereo not shown) [Compound 2, 2-(1-(1H-indol-3-yl)butyl)-3-hydroxy-6-(hydroxymethyl)-4H-pyran-4-one] | 45.2 ± 0.348 µM | 43.25 ± 0.416 µM | 43 ± 0.144 µM | 130 to 140 °C | – | –
CCCCCCCCCC(c1oc(CO)cc(=O)c1O)c1c[nH]c2ccccc12 (stereo not shown) [Compound 6] | > 100 µM | 40.6 ± 0.621 µM | > 100 µM | 110 to 120 °C | – | –
CCCCCC(c1oc(CO)cc(=O)c1O)c1c[nH]c2ccccc12 (stereo not shown) [Compound 3, 2-{1-(1H-indol-3-yl)hexyll}-3-hydroxy-6-(hydroxymethyl)-4H-pyran-4-one] | > 100 µM | 40.6 ± 0.621 µM | 43.5 ± 0.203 µM | 120 to 130 °C | – | –
CCCCCCCCCCC(c1oc(CO)cc(=O)c1O)c1c[nH]c2ccccc12 (stereo not shown) [Compound 7, 2-{1-(1H-indol-3-yl)undecyl}-3-hydroxy-6-(hydroxymethyl)-4H-pyran-4-one] | > 100 µM | 49.5 ± 0.448 µM | > 100 µM | 110 to 120 °C | – | –
O=c1cc(CO)occ1O [Compound 1, 5-Hydroxy-2-(hydroxymethyl)-4H-pyran-4-one, reference compound] | 94.5 ± 2.68 µM | 87.2 ± 1.52 µM | > 100 µM | – | 16.7% | 23%
CCCCCCC(c1oc(CO)cc(=O)c1O)c1c[nH]c2ccccc12 (stereo not shown) [Compound 4, 2-(1-(1H-indol-3-yl)heptyl)-3-hydroxy-6-(hydroxymethyl)-4H-pyran-4-one] | 3.93 ± 0.288 µM | 3.84 ± 0.055 µM | 4.3 ± 0.443 µM | 115 to 125 °C | – | –

Now from value to compound, other results behind:

IC50 (MCF7 cells) | IC50 (MDA-MB-231 cells) | IC50 (T47D cells) | melting point | Compound | decrease in metastatic lung nodules [1] | inhibition in tumor growth ([1]; vs normal saline)
0.085 ± 0.125 µM | 0.22 ± 0.185 µM | 0.081 ± 0.211 µM | – | COc1cccc2c1C(=O)c1c(O)c3c(c(O)c1C2=O)C[C@@](O)(C(=O)CO)C[C@@H]3O[C@H]1C[C@H](N)[C@H](O)[C@H](C)O1 [DOXO, doxorubicin, reference compound] | – | –
> 100 µM | 48.5 ± 0.341 µM | > 100 µM | 90 to 100 °C | CCCCCCCCCCCCCCCCCC(c1oc(CO)cc(=O)c1O)c1c[nH]c2ccccc12 (stereo not shown) [Compound 10, 2-{1-(1H-indol-3-yl)octadecyl}-3-hydroxy-6-(hydroxymethyl)-4H-pyran-4-one] | – | –
> 100 µM | 45.2 ± 0.535 µM | > 100 µM | 105 to 115 °C | CCCCCCCCCCCC(c1oc(CO)cc(=O)c1O)c1c[nH]c2ccccc12 (stereo not shown) [Compound 8, 2-{1-(1H-indol-3-yl)dodecyl}-3-hydroxy-6-(hydroxymethyl)-4H-pyran-4-one] | – | –
> 100 µM | 45.7 ± 0.195 µM | > 100 µM | 95 to 105 °C | CCCCCCCCCCCCCCCC(c1oc(CO)cc(=O)c1O)c1c[nH]c2ccccc12 (stereo not shown) [Compound 9, 2-{1-(1H-indol-3-yl)hexadecyl}-3-hydroxy-6-(hydroxymethyl)-4H-pyran-4-one] | – | –
